Measured values from PMC4579270, “Identification and Characterization of an Irreversible Inhibitor of CDK2” (Chemistry & Biology, 2015).

Key:
[1] = target: CDK2 (Homo sapiens, UniProt P24941); test: CDK2 kinase inhibition assay; type: biochemical; settings: read-out: CDK2 median inhibitory concentration [IC50]
Description: CDK2/cyclin A kinase assays were carried out using a method modified from [Brown et al. (1999)] or by using the ADP-Glo assay (Promega) essentially as described by the manufacturers. A full description of the assay formats is provided in the Supplemental Experimental Procedures.

[2] = target: T1, immobilized CDK2/cyclin A (Homo sapiens, UniProt P24941); test: SPR kinetics of non-covalent complex; type: binding; settings: 1:1 model, 25 °C
T1 construct: made in house; host or cells: Escherichia coli
From the text: To determine the kinetics of the interactions of NU6310 and NU6300 with immobilized CDK2/cyclin A, the sensor surface was exposed to five different concentrations of each inhibitor for different contact times (Figures 2A and 2B). On these relatively short time scales (compared with the experiment above), the interactions between CDK2 and either NU6300 or NU6310 appeared reversible, since the sensorgrams were well described by a simple 1:1 model and the dissociation was similar irrespective of the contact time. It enabled the estimation of the kinetic constants (kon, koff, KD) for the formation of the non-covalent complex. […] The formation of a covalent complex could not be detected on the time scales of these experiments, and the injection times could not be extended further for practical reasons.
Figure 2 NU6300 Is a Covalent Inhibitor of CDK2 (A and B) SPR sensorgrams for the interaction between immobilized CDK2 and NU6310 and NU6300. (A) The effects of time on the interaction were evaluated by comparing the dissociation rates for the compounds injected at 10 μM for different contact times (30, 60, 120, and 240 s). Sensorgrams are aligned with respect to the start of the dissociation. (B) The determination of rate constants was based on global analysis of a set of sensorgrams recorded for a concentration series (39, 156, 625, 2,500, and 10,000 nM) of the compounds. Theoretical curves of a fitted 1:1 Langmuir interaction model (black) are overlaid on the experimental traces. (C) Phosphorylation of GST-Rb by CDK2/cyclin A. The slower-migrating band is hyperphosphorylated GST-Rb (Phospho-Rb). Time points (in minutes) are shown above. (D) Time-dependent inhibition of CDK2/cyclin A. Activity was measured using the ADP-Glo assay format against a peptide of sequence HHASPRK. Error bars indicate SD of the measurements. See also Figure S1 and Table S1.
The interaction experiments were performed using SPR biosensor technology, with Biacore S51 and T100 instruments, CM5 biosensor chips, and standard reagents (GE Healthcare). Full details can be found in the Supplemental Experimental Procedures. […]
CDK2 was immobilized to activated carboxylated dextran surfaces by amine coupling to give surface densities of 6000-25000 RU. All interaction experiments were performed at 25 °C in 10 mM phosphate pH 7.4, 137 mM NaCl, 3 mM KCl, with addition of 0.05 % Tween 20, 5 % (v/v) DMSO, and at a flow rate of 90 or 30 µL/min. […]
Sensorgrams or extracted report points from reference surfaces and blank injections were subtracted from the raw data prior to data analysis, using Biacore T100 evaluation software 2.0. A 1:1 interaction model was fitted globally to sets of sensorgrams recorded with different contact times and at different inhibitor concentrations in multi-cycle experiments. Kinetic parameters were determined from sensorgrams with 30 s and 60 s contact time. Standard deviations were based on at least 4 measurement series.
CDK2/cyclin A was mixed with a freshly prepared solution of NU6300 to achieve DMSO and inhibitor concentrations of 2% and 2 mM respectively, concentrated by ultrafiltration to a CDK2/cyclin A final concentration of circa 5 mg ml-1, and then crystallized as described (Davies et al., 2002). Briefly, crystals were grown from a mother liquor containing 0.6–0.8 M KCl, 0.9–1.2 M (NH4)2SO4, and 100 mM HEPES (pH 7.0). Sitting drops were set up with a 1:1 ratio of protein to reservoir solution in a total initial volume of 0.5 or 1.0 µl.
Before data collection, crystals were briefly immersed in cryo-protectant (1 M sodium

[3] = target: p38β MAPK (Homo sapiens, UniProt Q15759); test: Dundee protein kinase screen; type: biochemical; settings: read-out: %Remaining activity at 1µM NU6300
Description: (§1) Prior to determining its cellular activity, we carried out a screen to assess its selectivity against a panel of 131 protein kinases under conditions that would not distinguish between a reversible or irreversible mode of action. […] These 13 kinases and 29 additional kinases, selected for their known sensitivity to other inhibitors within the purine series, were then tested in a modified screening format in which the assay was repeated following a 4-hr pre-incubation (Table S3B). […] However, conformational flexibility around the active site may promote such an interaction with a residue from another part of the structure ([Martin et al., 2012]).
(§2) Table S3, Related to Figure 4. NCL-0006300 protein kinase selectivity. (A) NU6300 was tested at a single concentration of 1µM against 131 protein kinases present in a Dundee protein kinase screen (Bain et al., 2007). Values given are % activity remaining and are the average of duplicate measurements: 0-25% (red), 26-50% (yellow), 51-80% […]
(§3) (black) and above 81% (green). […]

[4] = target: PIM1 (Homo sapiens, UniProt P11309); test: Dundee protein kinase screen; type: biochemical; settings: PIM1, 1µM; read-out: %Remaining activity at 1µM NU6300
Description: as §1, §2, §3

[5] = target: YES1 (Homo sapiens, UniProt P07947); test: Dundee protein kinase screen; type: biochemical; settings: YES1, 1µM; read-out: %Remaining activity at 1µM NU6300
Description: as §1, §2, §3

PIM1, sequence (P11309 whole entry): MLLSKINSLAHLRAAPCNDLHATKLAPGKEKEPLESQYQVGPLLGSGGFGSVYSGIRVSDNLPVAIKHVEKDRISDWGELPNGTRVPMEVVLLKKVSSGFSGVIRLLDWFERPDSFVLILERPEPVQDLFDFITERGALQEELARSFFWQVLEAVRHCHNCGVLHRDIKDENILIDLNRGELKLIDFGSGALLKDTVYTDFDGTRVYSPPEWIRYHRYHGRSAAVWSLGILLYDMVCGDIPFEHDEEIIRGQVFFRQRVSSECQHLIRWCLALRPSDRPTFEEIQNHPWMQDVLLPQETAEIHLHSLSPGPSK
p38β MAPK, sequence (Q15759 whole entry): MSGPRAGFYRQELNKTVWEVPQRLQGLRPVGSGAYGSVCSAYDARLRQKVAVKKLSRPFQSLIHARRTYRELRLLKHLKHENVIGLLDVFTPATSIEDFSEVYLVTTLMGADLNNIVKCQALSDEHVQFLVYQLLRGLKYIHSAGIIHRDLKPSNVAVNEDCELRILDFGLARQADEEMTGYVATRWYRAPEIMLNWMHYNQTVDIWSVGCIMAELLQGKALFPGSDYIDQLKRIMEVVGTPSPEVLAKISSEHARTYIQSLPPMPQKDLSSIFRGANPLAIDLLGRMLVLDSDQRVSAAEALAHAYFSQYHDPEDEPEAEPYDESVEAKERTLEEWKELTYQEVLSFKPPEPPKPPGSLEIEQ
YES1, sequence (P07947 whole entry): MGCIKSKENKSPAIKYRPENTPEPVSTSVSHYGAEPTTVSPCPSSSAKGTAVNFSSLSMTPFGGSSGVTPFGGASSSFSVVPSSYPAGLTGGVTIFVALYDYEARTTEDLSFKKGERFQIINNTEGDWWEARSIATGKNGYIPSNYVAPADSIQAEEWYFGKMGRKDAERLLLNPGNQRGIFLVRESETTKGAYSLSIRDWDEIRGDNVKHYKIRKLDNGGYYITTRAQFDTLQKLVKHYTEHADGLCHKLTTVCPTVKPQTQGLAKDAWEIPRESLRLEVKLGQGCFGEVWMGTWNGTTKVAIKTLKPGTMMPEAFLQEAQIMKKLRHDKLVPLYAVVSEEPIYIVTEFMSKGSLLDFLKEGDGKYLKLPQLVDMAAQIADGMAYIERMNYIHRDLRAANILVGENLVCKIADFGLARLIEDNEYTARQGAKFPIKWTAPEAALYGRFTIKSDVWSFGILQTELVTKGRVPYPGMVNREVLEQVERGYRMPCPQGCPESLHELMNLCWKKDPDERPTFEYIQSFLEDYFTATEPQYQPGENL

IC50 [1] [nM]	Structure (SMILES)	Kd [2] [nM]	koff [2] [s⁻¹]	kon [2] [M⁻¹ s⁻¹]	remaining activity at 1 µM [3] [%]	remaining activity at 1 µM [4] [%]	remaining activity at 1 µM [5] [%]
160	CCS(=O)(=O)c1ccc(Nc2nc(OCC3CCCCC3)c3nc[nH]c3n2)cc1 [NU6310, 6-(cyclohexylmethoxy)-N-(4-(ethylsulfonyl)phenyl)-9H-purin-2-amine]	716 ± 12	0.0809 ± 0.007	113000 ± 1e+09			
	C=CS(=O)(=O)c1ccc(Nc2nc(OCC3CCCCC3)c3nc[nH]c3n2)cc1 [NU6300, 6-(cyclohexylmethoxy)-N-(4-(vinylsulfonyl)phenyl)-9H-purin-2-amine]	1310 ± 180	0.0713 ± 0.0063	54500 ± 7.2e+08	67	84	17
